What was measured:
UACC-62 = experiment: Growth inhibition of human UACC62 cells assessed as cell growth at 10 uM incubated for 48 hrs by sulforhodamine B assay relative to control; type: functional; conditions: UACC-62, 48 h, read-out: Activity
SNB-19 = experiment: Growth inhibition of human SNB19 cells assessed as cell growth at 10 uM incubated for 48 hrs by sulforhodamine B assay relative to control; type: functional; conditions: SNB-19, 48 h, read-out: Activity
NCI-H23 = experiment: Growth inhibition of human NCI-H23 cells assessed as cell growth at 10 uM incubated for 48 hrs by sulforhodamine B assay relative to control; type: functional; conditions: NCI-H23, 48 h, read-out: Activity
PC-3 = experiment: Growth inhibition of human PC3 cells assessed as cell growth at 10 uM incubated for 48 hrs by sulforhodamine B assay relative to control; type: functional; conditions: PC-3, 48 h, read-out: Activity
786-0 = experiment: Growth inhibition of human 786-0 cells assessed as cell growth at 10 uM incubated for 48 hrs by sulforhodamine B assay relative to control; type: functional; conditions: 786-0, 48 h, read-out: Activity
OVCAR-3 = experiment: Growth inhibition of human OVCAR3 cells assessed as cell growth at 10 uM incubated for 48 hrs by sulforhodamine B assay relative to control; type: functional; conditions: OVCAR-3, 48 h, read-out: Activity
MOLT-4 = experiment: Growth inhibition of human MOLT4 cells assessed as cell growth at 10 uM incubated for 48 hrs by sulforhodamine B assay relative to control; type: functional; conditions: MOLT-4, 48 h, read-out: Activity
Hs-578T = experiment: Growth inhibition of human Hs 578T cells assessed as cell growth at 10 uM incubated for 48 hrs by sulforhodamine B assay relative to control; type: functional; conditions: read-out: Activity
KM12 = experiment: Growth inhibition of human KM12 cells assessed as cell growth at 10 uM incubated for 48 hrs by sulforhodamine B assay relative to control; type: functional; conditions: KM12, 48 h, read-out: Activity
OVCAR-8 = experiment: Growth inhibition of human OVCAR8 cells assessed as cell growth at 10 uM incubated for 48 hrs by sulforhodamine B assay relative to control; type: functional; conditions: OVCAR-8, 48 h, read-out: Activity
NCI/ADR-RES = experiment: Growth inhibition of human NCI/ADR-RES cells assessed as cell growth at 10 uM incubated for 48 hrs by sulforhodamine B assay relative to control; type: functional; conditions: read-out: Activity
HL-60(TB) = experiment: Growth inhibition of human HL-60(TB) cells assessed as cell growth at 10 uM incubated for 48 hrs by sulforhodamine B assay relative to control; type: functional; conditions: HL-60, 48 h, read-out: Activity
MDA-MB-435 = experiment: Growth inhibition of human MDA-MB-435 cells assessed as cell growth at 10 uM incubated for 48 hrs by sulforhodamine B assay relative to control; type: functional; conditions: MDA-MB-435, 48 h, read-out: Activity
SK-OV-3 = experiment: Growth inhibition of human SKOV3 cells assessed as cell growth at 10 uM incubated for 48 hrs by sulforhodamine B assay relative to control; type: functional; conditions: SK-OV-3, 48 h, read-out: Activity
HOP-62 = experiment: Growth inhibition of human HOP62 cells assessed as cell growth at 10 uM incubated for 48 hrs by sulforhodamine B assay relative to control; type: functional; conditions: HOP-62, 48 h, read-out: Activity
COLO 205 = experiment: Growth inhibition of human COLO205 cells assessed as cell growth at 10 uM incubated for 48 hrs by sulforhodamine B assay relative to control; type: functional; conditions: COLO 205, 48 h, read-out: Activity
T47D = experiment: Growth inhibition of human T47D cells assessed as cell growth at 10 uM incubated for 48 hrs by sulforhodamine B assay relative to control; type: functional; conditions: read-out: Activity
ACHN = experiment: Growth inhibition of human ACHN cells assessed as cell growth at 10 uM incubated for 48 hrs by sulforhodamine B assay relative to control; type: functional; conditions: read-out: Activity
OVCAR-4 = experiment: Growth inhibition of human OVCAR4 cells assessed as cell growth at 10 uM incubated for 48 hrs by sulforhodamine B assay relative to control; type: functional; conditions: OVCAR-4, 48 h, read-out: Activity
DU-145 = experiment: Growth inhibition of human DU145 cells assessed as cell growth at 10 uM incubated for 48 hrs by sulforhodamine B assay relative to control; type: functional; conditions: DU-145, 48 h, read-out: Activity
EKVX = experiment: Growth inhibition of human EKVX cells assessed as cell growth at 10 uM incubated for 48 hrs by sulforhodamine B assay relative to control; type: functional; conditions: read-out: Activity
A549 = experiment: Growth inhibition of human A549/ATCC cells assessed as cell growth at 10 uM incubated for 48 hrs by sulforhodamine B assay relative to control; type: functional; conditions: A549, 48 h, read-out: Activity
U-251 = experiment: Growth inhibition of human U251 cells assessed as cell growth at 10 uM incubated for 48 hrs by sulforhodamine B assay relative to control; type: functional; conditions: U-251, 48 h, read-out: Activity
[1] = target: Epidermal growth factor receptor (Homo sapiens, UniProt P00533); experiment: Inhibition of recombinant human C-terminal His/N-terminal GST-tagged EGFR (668 to 1210 residues) expressed in baculovirus infected Sf9 cells at 10 uM using biotin-labeled poly[Glu:Tyr] (4:1) as substrate after 30 mins by Kinase-Glo plus luminescence assay relative to control
SN12C = experiment: Growth inhibition of human SN12C cells assessed as cell growth at 10 uM incubated for 48 hrs by sulforhodamine B assay relative to control; type: functional; conditions: read-out: Activity
SR = experiment: Growth inhibition of human SR cells assessed as cell growth at 10 uM incubated for 48 hrs by sulforhodamine B assay relative to control; type: functional; conditions: read-out: Activity
K562 = experiment: Growth inhibition of human K562 cells assessed as cell growth at 10 uM incubated for 48 hrs by sulforhodamine B assay relative to control; type: functional; conditions: K562, 48 h, read-out: Activity
BT-549 = experiment: Growth inhibition of human BT549 cells assessed as cell growth at 10 uM incubated for 48 hrs by sulforhodamine B assay relative to control; type: functional; conditions: BT-549, 48 h, read-out: Activity
NCI-H522 = experiment: Growth inhibition of human NCI-H522 cells assessed as cell growth at 10 uM incubated for 48 hrs by sulforhodamine B assay relative to control; type: functional; conditions: NCI-H522, 48 h, read-out: Activity
LOX IMVI = experiment: Growth inhibition of human LOXIMVI cells assessed as cell growth at 10 uM incubated for 48 hrs by sulforhodamine B assay relative to control; type: functional; conditions: read-out: Activity
OVCAR-5 = experiment: Growth inhibition of human OVCAR5 cells assessed as cell growth at 10 uM incubated for 48 hrs by sulforhodamine B assay relative to control; type: functional; conditions: OVCAR-5, 48 h, read-out: Activity
SK-MEL-5 = experiment: Growth inhibition of human SK-MEL-5 cells assessed as cell growth at 10 uM incubated for 48 hrs by sulforhodamine B assay relative to control; type: functional; conditions: SK-MEL-5, 48 h, read-out: Activity
NCI-H460 = experiment: Growth inhibition of human NCI-H460 cells assessed as cell growth at 10 uM incubated for 48 hrs by sulforhodamine B assay relative to control; type: functional; conditions: NCI-H460, 48 h, read-out: Activity

Sequence of Epidermal growth factor receptor (P00533 whole entry, the tested form may be a part): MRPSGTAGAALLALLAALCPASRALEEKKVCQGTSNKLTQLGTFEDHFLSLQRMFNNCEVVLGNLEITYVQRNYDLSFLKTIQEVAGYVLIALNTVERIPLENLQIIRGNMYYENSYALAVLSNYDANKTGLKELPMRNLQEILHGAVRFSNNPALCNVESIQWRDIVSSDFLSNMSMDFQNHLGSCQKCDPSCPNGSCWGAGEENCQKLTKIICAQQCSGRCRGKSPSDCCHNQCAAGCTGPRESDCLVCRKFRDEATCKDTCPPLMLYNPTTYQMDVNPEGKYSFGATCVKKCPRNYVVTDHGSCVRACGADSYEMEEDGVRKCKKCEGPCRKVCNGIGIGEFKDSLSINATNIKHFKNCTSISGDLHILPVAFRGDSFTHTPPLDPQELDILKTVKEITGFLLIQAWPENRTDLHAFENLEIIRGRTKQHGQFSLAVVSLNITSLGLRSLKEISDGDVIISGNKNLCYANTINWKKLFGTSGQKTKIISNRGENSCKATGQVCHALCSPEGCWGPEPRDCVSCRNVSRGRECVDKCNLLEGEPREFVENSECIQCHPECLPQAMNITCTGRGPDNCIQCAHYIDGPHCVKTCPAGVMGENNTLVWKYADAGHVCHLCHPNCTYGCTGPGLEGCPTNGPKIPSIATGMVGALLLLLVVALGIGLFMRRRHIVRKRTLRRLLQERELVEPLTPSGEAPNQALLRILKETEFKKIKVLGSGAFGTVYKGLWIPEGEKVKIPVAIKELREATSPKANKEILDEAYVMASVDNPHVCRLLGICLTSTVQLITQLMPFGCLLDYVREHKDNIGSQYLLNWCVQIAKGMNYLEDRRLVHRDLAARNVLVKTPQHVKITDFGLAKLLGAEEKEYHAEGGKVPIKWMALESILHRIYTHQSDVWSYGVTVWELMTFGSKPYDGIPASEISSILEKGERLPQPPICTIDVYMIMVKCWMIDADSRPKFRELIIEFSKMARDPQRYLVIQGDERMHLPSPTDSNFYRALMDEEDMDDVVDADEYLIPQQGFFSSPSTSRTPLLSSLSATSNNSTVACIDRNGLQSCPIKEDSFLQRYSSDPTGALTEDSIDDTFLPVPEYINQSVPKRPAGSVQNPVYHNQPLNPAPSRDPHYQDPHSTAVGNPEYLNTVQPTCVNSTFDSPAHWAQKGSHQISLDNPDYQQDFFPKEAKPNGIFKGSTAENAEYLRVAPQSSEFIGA

SMILES	growth at 10 µM (UACC-62)	growth at 10 µM (SNB-19)	growth at 10 µM (NCI-H23)	growth at 10 µM (PC-3)	growth at 10 µM (786-0)	growth at 10 µM (OVCAR-3)	growth at 10 µM (MOLT-4)	growth at 10 µM (Hs-578T)	growth at 10 µM (KM12)	growth at 10 µM (OVCAR-8)	growth at 10 µM (NCI/ADR-RES)	growth at 10 µM (HL-60(TB))	growth at 10 µM (MDA-MB-435)	growth at 10 µM (SK-OV-3)	growth at 10 µM (HOP-62)	growth at 10 µM (COLO 205)	growth at 10 µM (T47D)	growth at 10 µM (ACHN)	growth at 10 µM (OVCAR-4)	growth at 10 µM (DU-145)	also measured
CCCNC(=O)c1c(C)oc2ncnc(Nc3cccc(Cl)c3)c12	83.4%	106%	91.5%	81.9%	105%	106%	95.4%	104%	94.6%	96.8%	94.1%	96.3%	103%	85.6%	87.7%	104%	53.5%	107%	101%	90%	growth at 10 µM (EKVX): 98.8%; growth at 10 µM (A549): 82.7%; growth at 10 µM (U-251): 90.9%; inhibition [1]: 65%; growth at 10 µM (SN12C): 99.4%; growth at 10 µM (SR): 86%; growth at 10 µM (K562): 90.1%; growth at 10 µM (BT-549): 102%; growth at 10 µM (NCI-H522): 54.9%; growth at 10 µM (LOX IMVI): 96.4%; growth at 10 µM (OVCAR-5): 112%; growth at 10 µM (SK-MEL-5): 89.9%; growth at 10 µM (NCI-H460): 107%
Cc1oc2ncnc(Nc3ccccc3)c2c1C(=O)NCCO	86.2%	93.9%	92%	107%	98.7%	102%	-0.28%	90.5%	95.2%	113%	102%	64.9%	102%	100%	99%	100%	99.4%	91.8%	103%	105%	growth at 10 µM (EKVX): 97.6%; growth at 10 µM (A549): 98.1%; growth at 10 µM (U-251): 102%; inhibition [1]: 8%; growth at 10 µM (SN12C): 93.2%; growth at 10 µM (SR): 52.2%; growth at 10 µM (K562): 29.4%; growth at 10 µM (BT-549): 90.1%; growth at 10 µM (NCI-H522): 96.6%; growth at 10 µM (LOX IMVI): 95.4%; growth at 10 µM (OVCAR-5): 93.2%; growth at 10 µM (SK-MEL-5): 97.5%; growth at 10 µM (NCI-H460): 98.6%
Cc1cccc(Nc2ncnc3oc(C)c(C(=O)NCCN4CCOCC4)c23)c1	84.6%	91%	92.5%	101%	92.4%	102%	111%	88.5%	94.6%	109%	94.7%	92.4%	101%	111%	93.1%	101%	106%	93.6%	110%	99.4%	growth at 10 µM (EKVX): 92.6%; growth at 10 µM (A549): 102%; growth at 10 µM (U-251): 105%; inhibition [1]: 30%; growth at 10 µM (SN12C): 94.3%; growth at 10 µM (SR): 126%; growth at 10 µM (K562): 98.3%; growth at 10 µM (BT-549): 90.7%; growth at 10 µM (NCI-H522): 89.9%; growth at 10 µM (LOX IMVI): 93.2%; growth at 10 µM (OVCAR-5): 81.8%; growth at 10 µM (SK-MEL-5): 96.9%; growth at 10 µM (NCI-H460): 105%
CCOC(=O)c1c(C)oc2ncnc(Nc3ccc(OCc4cccc(C)c4)cc3)c12	80.7%	99.7%	94.9%	93.4%	103%	117%	115%	102%	96.1%	106%	97%	108%	104%	96.7%	101%	100%	87.3%	98.1%	105%	101%	growth at 10 µM (EKVX): 94.5%; growth at 10 µM (A549): 88.9%; growth at 10 µM (U-251): 96.4%; inhibition [1]: 6%; growth at 10 µM (SN12C): 88.6%; growth at 10 µM (SR): 116%; growth at 10 µM (K562): 98%; growth at 10 µM (BT-549): 106%; growth at 10 µM (NCI-H522): 81%; growth at 10 µM (LOX IMVI): 91.8%; growth at 10 µM (OVCAR-5): 107%; growth at 10 µM (SK-MEL-5): 99.2%; growth at 10 µM (NCI-H460): 95.5%
Cc1oc2ncnc(Nc3cccc(Cl)c3)c2c1CO	76.4%	87.3%	87.5%	71.3%	78.3%	102%	86.2%	96.2%	91.4%	108%	86%	54%	93.1%	101%	89%	93.9%	78.8%	76.7%	92.5%	86.2%	growth at 10 µM (EKVX): 64.4%; growth at 10 µM (A549): 82.1%; growth at 10 µM (U-251): 92.3%; inhibition [1]: 69%; growth at 10 µM (SN12C): 88.6%; growth at 10 µM (SR): 62.2%; growth at 10 µM (K562): 85.4%; growth at 10 µM (BT-549): 81.9%; growth at 10 µM (NCI-H522): 89.8%; growth at 10 µM (LOX IMVI): 98.4%; growth at 10 µM (OVCAR-5): 74.3%; growth at 10 µM (SK-MEL-5): 87.9%; growth at 10 µM (NCI-H460): 94%
CCOC(=O)c1c(C)oc2ncnc(Nc3ccc(OCc4ccc(Cl)c(Cl)c4)cc3)c12	93.2%	103%	95.8%	103%	94.3%	118%	105%	104%	102%	113%	103%	96.6%	111%	98.9%	101%	111%	90.1%	102%	121%	108%	growth at 10 µM (EKVX): 102%; growth at 10 µM (A549): 95.8%; growth at 10 µM (U-251): 104%; inhibition [1]: 0%; growth at 10 µM (SN12C): 93.3%; growth at 10 µM (SR): 90%; growth at 10 µM (K562): 93.8%; growth at 10 µM (BT-549): 94.9%; growth at 10 µM (NCI-H522): 91%; growth at 10 µM (LOX IMVI): 95.1%; growth at 10 µM (OVCAR-5): 95%; growth at 10 µM (SK-MEL-5): 103%; growth at 10 µM (NCI-H460): 102%

Source: ChEMBL document CHEMBL4251615, “Discovery of anilino-furo[2,3-d]pyrimidine derivatives as dual inhibitors of EGFR/HER2 tyrosine kinase and their anticancer activity” (Eur J Med Chem, 2018)
